Measured values reported in the NIST ThermoML archive (doi:10.1016/j.fluid.2013.01.004).
± gives the expanded uncertainty stated by the source.

Assays:
[1] = wn = mass fraction of the nth substance listed; conditions: 323.15 K, 101 kPa, Liquid, Pycnometric method
[2] = refractive index (Na D-line) (dimensionless); wn = mass fraction of the nth substance listed; conditions: 323.15 K, 101 kPa, Liquid, Standard Abbe refractometry

| SMILES | mass density ([1]; w1 = 0.338) [kg/m3] | refractive index ([2]; w1 = 0.338) | mass density ([1]; w1 = 0.5202) [kg/m3] | refractive index ([2]; w1 = 0.5202) |
| --- | --- | --- | --- | --- |
| O=S(=O)([O-])[O-].[Mg+2] [magnesium sulfate] + O | 1387.2 ± 2.1 | 1.3982 ± 0.0012 |  |  |
| [Br-].[Br-].[Mg+2] [magnesium bromide (MgBr2)] + O |  |  | 1662.2 ± 9.3 | 1.462 ± 0.0013 |
